The test deals with USP30 (Homo sapiens (Human), UniProt Q70CQ3). The experiment in a line: USP30 Biochemical IC50 Assay. The note with it: fluorescence polarisation, TAMRA labelled peptide linked to ubiquitin; 30 min pre-incubation, read after 2 h at room temperature; read-out: IC50 range. How it is done: USP30 Biochemical IC50 Assay
USP30, sequence (Q70CQ3 57-517): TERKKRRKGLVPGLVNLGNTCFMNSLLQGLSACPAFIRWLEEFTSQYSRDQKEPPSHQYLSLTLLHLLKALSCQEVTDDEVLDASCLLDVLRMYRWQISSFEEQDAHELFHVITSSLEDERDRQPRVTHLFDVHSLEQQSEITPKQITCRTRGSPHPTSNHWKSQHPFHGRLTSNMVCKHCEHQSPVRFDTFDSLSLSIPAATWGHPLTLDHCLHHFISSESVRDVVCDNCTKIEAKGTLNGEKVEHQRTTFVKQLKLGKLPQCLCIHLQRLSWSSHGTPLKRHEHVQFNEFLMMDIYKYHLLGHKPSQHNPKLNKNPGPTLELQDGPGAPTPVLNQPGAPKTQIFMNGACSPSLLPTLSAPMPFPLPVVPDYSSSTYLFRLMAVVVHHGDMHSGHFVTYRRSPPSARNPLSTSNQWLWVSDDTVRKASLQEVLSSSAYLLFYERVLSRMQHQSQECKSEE
Dilution plates were prepared at 21 times the final concentration (2100 μM for a final concentration of 100 μM) in 50% DMSO in a 96-well polypropylene V-bottom plate (Greiner #651201). A typical 8-point dilution series would be 100, 30, 10, 3, 1, 0.3, 0.1, […]. Reactions were performed in duplicate in black 384 well plates (small volume, Greiner 784076) in a final reaction volume of 21 μl. Either 1 μl of 50% DMSO or diluted compound was added to the plate. USP30 was diluted in reaction buffer (40 mM Tris, pH 7.5, 0.005% Tween 20, 0.5 mg/ml BSA, 5 mM beta-mercaptoethanol) to the equivalent of 0.05 μl/well and 10 μl of diluted USP30 was added to the compound. Enzyme and compound were incubated for 30 min at room temp. Reactions were initiated by the addition of 50 nM of TAMRA labelled peptide linked to ubiquitin via an iso-peptide bond as fluorescence polarisation substrate. Reactions were read immediately after addition of substrate and following a 2 h incubation at room temperature. Readings were performed on a Pherastar Plus (BMG Labtech). λ Excitation 540 nm; λ Emission 590 nm.
In general terms: In fluorescence polarisation assays a small probe gives low polarisation when free and higher when bound to something large.
Regarding `N#CN1CCC[C@](F)(c2nc3ccc(-c4ccccc4)nc3[nH]2)C1` [Example 15, (R)-3-fluoro-3-(5-phenyl-3H-imidazo[4,5-b]pyridin-2-yl)piperidine-1-carbonitrile], the IC50 was 0.1 to 1 µM.

As to `N#Cc1cccc(-c2ccc3nc(C4(F)CCCN(C#N)C4)[nH]c3n2)c1` (stereo in doubt) [Example 16, (S)-3-(5-(3-cyanophenyl)-3H-imidazo[4,5-b]pyridin-2-yl)-3-fluoropiperidine-1-carbonitrile], the IC50 lay within 0.01 to 0.1 µM. Regarding `N#CN1CCCC(F)(c2nc3ccc(-c4ccn[nH]4)cc3[nH]2)C1` (centres unmarked) [Example 14, 3-(6-(H-pyrazol-5-yl)-1H-benzo[d]imidazol-2-yl)-3-fluoropiperidine-1-carbonitrile], the IC50 is 1 to 10 µM. The figure for `N#CN1CCOC(c2nc(-c3cccc(-c4ccccc4)c3)n[nH]2)C1` (centres unmarked) [Example 6, 2-(3-([1,1′-Biphenyl]-3-yl)-H-1,2,4-triazol-5-yl)morpholine-4-carbonitrile] is 1 to 10 µM; for `N#Cc1ccnc(-c2ccc3oc([C@@]4(F)CCCN(C#N)C4)nc3c2)c1` [Example 26, (R)-2-(2-(1-cyano-3-fluoropiperidin-3-yl)benzo[d]oxazol-5-yl)isonicotinonitrile] it is 0.1 to 1 µM. Next, `N#CN1CCCC(F)(c2nc3ccc(-c4ccn[nH]4)nc3[nH]2)C1` (racemic) [Example 17, 3-(5-(1H-pyrazol-5-yl)-3H-imidazo[4,5-b]pyridin-2-yl)-3-fluoropiperidine-1-carbonitrile]: 1 to 10 µM; `N#Cc1cc(-c2ccc3nc([C@@]4(F)CCCN(C#N)C4)oc3c2)ccn1` [Example 27, (R)-4-(2-(1-cyano-3-fluoropiperidin-3-yl)benzo[d]oxazol-6-yl)picolinonitrile]: 0.1 to 1 µM; `N#Cc1cc(-c2ccc3oc([C@@]4(F)CCCN(C#N)C4)nc3c2)ccn1` [Example 25, (R)-4-(2-(1-cyano-3-fluoropiperidin-3-yl)benzo[d]oxazol-5-yl)picolinonitrile]: 0.01 to 0.1 µM. Take `N#Cc1cc(-c2cc(-c3nnc([C@@]4(F)CCCN(C#N)C4)o3)ccn2)ccn1` [Example 11, (R)-4-(5-(1-cyano-3-fluoropiperidin-3-yl)-1,3,4-oxadiazol-2-yl)-[2,4′-bipyridine]-2′-carbonitrile]: the IC50 was in the range of 0.1 to 1 µM. The figure for `N#Cc1cc(-c2ccc3nc([C@@]4(F)CCCN(C#N)C4)[nH]c3n2)ccn1` [Example 19, (R)-4-(2-(1-cyano-3-fluoropiperidin-3-yl)-1H-imidazo[4,5-b]pyridin-5-yl)picolinonitrile] is 0.1 to 1 µM; for `N#CN1CCC[C@](F)(c2nnc(-c3cccc(-c4ccccc4)c3)o2)C1` [Example 9, (R)-3-(5-([1,1′-biphenyl]-3-yl)-1,3,4-oxadiazol-2-yl)-3-fluoropiperidine-1-carbonitrile] it is 0.01 to 0.1 µM; for `N#Cc1cc(-c2cnc3nc([C@@]4(F)CCCN(C#N)C4)[nH]c3c2)ccn1` [Example 18, (R)-4-(2-(1-cyano-3-fluoropiperidin-3-yl)-3H-imidazo[4,5-b]pyridin-6-yl)picolinonitrile] it is 0.1 to 1 µM. The figure for `N#CN1CCCC(F)(c2nnc(-c3ccc(-c4ccccc4)cc3)o2)C1` (centres unmarked) [Example 10, 3-(5-([1,1′-biphenyl]-4-yl)-1,3,4-oxadiazol-2-yl)-3-fluoropiperidine-1-carbonitrile] is 0.1 to 1 µM.

With `N#Cc1cccc(-c2cnc3nc(C4(F)CCCN(C#N)C4)oc3c2)c1` (centres unmarked) [Example 29, 3-(6-(3-cyanophenyl)oxazolo[4,5-b]pyridin-2-yl)-3-fluoropiperidine-1-carbonitrile], the IC50 lay in the range of 0.1 to 1 µM. On to `N#Cc1cc(-c2ccc3oc([C@@]4(F)CCCN(C#N)C4)nc3c2)ncn1` [Example 23, (R)-6-(2-(1-cyano-3-fluoropiperidin-3-yl)benzo[d]oxazol-5-yl)pyrimidine-4-carbonitrile], for which the IC50 fell in the range of 0.1 to 1 µM. Next, `N#Cc1cc(-c2cnc3oc([C@@]4(F)CCCN(C#N)C4)nc3c2)ccn1` [Example 30, (R)-4-(2-(1-cyano-3-fluoropiperidin-3-yl)oxazolo[5,4-b]pyridin-6-yl)picolinonitrile]: 0.1 to 1 µM; `N#Cc1cccc(-c2ccc3nc([C@@]4(F)CCCN(C#N)C4)[nH]c3n2)n1` [Example 21, (R)-6-(2-(1-cyano-3-fluoropiperidin-3-yl)-3H-imidazo[4,5-b]pyridin-5-yl)picolinonitrile]: 1 to 10 µM. Regarding `N#Cc1ccnc(-c2ccc3oc([C@@]4(F)CCCN(C#N)C4)nc3c2)n1` [Example 24, (R)-2-(2-(1-cyano-3-fluoropiperidin-3-yl)benzo[d]oxazol-5-yl)pyrimidine-4-carbonitrile], the IC50 lay in the range of 0.1 to 1 µM.

Regarding `N#Cc1cc(-c2nnc([C@@]3(F)CCCN(C#N)C3)o2)ccn1` [Example 12, (R)-4-(5-(1-cyano-3-fluoropiperidin-3-yl)-1,3,4-oxadiazol-2-yl)picolinonitrile], the IC50 lay within 1 to 10 µM. Next, `N#Cc1cc(-c2ccnc(-c3nnc([C@@]4(F)CCCN(C#N)C4)o3)c2)ccn1` [Example 13, (R)-2′-(5-(1-cyano-3-fluoropiperidin-3-yl)-1,3,4-oxadiazol-2-yl)-[4,4′-bipyridine]-2-carbonitrile]: 1 to 10 µM; `N#Cc1cc(-c2ccn3cc([C@@]4(F)CCCN(C#N)C4)nc3c2)ccn1` [Example 31, (R)-4-(2-(1-cyano-3-fluoropiperidin-3-yl)imidazo[1,2-a]pyridin-7-yl)picolinonitrile]: 0.1 to 1 µM. Next, `N#Cc1cccc(-c2ccc3oc([C@@]4(F)CCCN(C#N)C4)nc3c2)c1` [Example 22, (R)-3-(5-(3-cyanophenyl)benzo[d]oxazol-2-yl)-3-fluoropiperidine-1-carbonitrile]: 0.01 to 0.1 µM; `N#Cc1cccc(-c2cnc3oc([C@@]4(F)CCCN(C#N)C4)nc3c2)c1` (stereo in doubt) [Example 28, 3-(6-(3-cyanophenyl)oxazolo[5,4-b]pyridin-2-yl)-3-fluoropiperidine-1-carbonitrile]: 0.1 to 1 µM.

Usually IC50 stands for the concentration that inhibits the measured activity by half.

The values are drawn from patent publication US10927110B2, “Cyano-subtituted heterocycles with activity as inhibitors of USP30” (MISSION THERAPEUTICS LIMITED, priority 2016, dated 2021).
